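Compound exposure: 48 hours, 5 concentrations, 96-well plates. TGI marks complete inhibition of growth.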
Tests used:
Assay in all cases: growth of human tumour cells (NCI), 48 h
[1] = tested on: HCT-116 colon
[2] = tested on: SW-620 colon
[3] = tested on: HT29 colon
[4] = tested on: CAKI-1 renal
[5] = tested on: EKVX NSCLC
[6] = tested on: SF-268 CNS
[7] = tested on: COLO 205 colon
[8] = tested on: A549 NSCLC
[9] = tested on: PC-3 prostate
[10] = tested on: MDA-MB-435
[11] = tested on: HL-60(TB) leukemia
[12] = tested on: MOLT-4 leukemia
[13] = tested on: SNB-75 CNS
[14] = tested on: OVCAR-5 ovarian
[15] = tested on: OVCAR-4 ovarian
[16] = tested on: NCI-H522 lung
[17] = tested on: ACHN renal
[18] = tested on: LOX IMVI melanoma
[19] = tested on: MCF7 breast
[20] = tested on: DU-145 prostate
[21] = tested on: HOP-92 NSCLC
[22] = tested on: UACC-257 melanoma
[23] = tested on: IGROV1 ovarian
[24] = tested on: KM12 colon
[25] = tested on: MDA-N
[26] = tested on: SK-OV-3 ovarian
[27] = tested on: K-562 leukemia
[28] = tested on: NCI-H226 lung
[29] = tested on: SK-MEL-5 melanoma
[30] = tested on: CCRF-CEM leukemia
[31] = tested on: SN12C renal
[32] = tested on: SNB-19 CNS
[33] = tested on: MALME-3M melanoma
[34] = tested on: T-47D breast
[35] = tested on: SK-MEL-2 melanoma
[36] = tested on: OVCAR-8 ovarian
[37] = tested on: NCI-H23 lung
[38] = tested on: HCC-2998 colon
[39] = tested on: BT-549 breast
[40] = tested on: MDA-MB-231 breast
[41] = tested on: SF-539 CNS
[42] = tested on: TK-10 renal
[43] = tested on: SR leukemia
[44] = tested on: RPMI-8226 leukemia
[45] = tested on: HOP-62 NSCLC
[46] = tested on: NCI-H460 lung
[47] = tested on: UACC-62 melanoma
[48] = tested on: 786-0 renal
[49] = tested on: SF-295 CNS
[50] = tested on: OVCAR-3 ovarian
[51] = tested on: U251 CNS
[52] = tested on: HCT-15 colon
[53] = tested on: HS 578T breast
[54] = tested on: NCI/ADR-RES ovarian
[55] = tested on: M14 melanoma

## CCC(C)[C@@H](Nc1c(O)c2c(c(O)c1Cl)C(=O)C=CC2=O)C(=O)OC (stereo not given in full)
[1]
  TGI: 6.94 µM
[2]
  TGI: > 10 µM
[3]
  TGI: > 10 µM
[4]
  TGI: > 10 µM
[5]
  TGI: > 10 µM
[6]
  TGI: > 10 µM
[7]
  TGI: 4.02 µM
[8]
  TGI: > 10 µM
[9]
  TGI: > 10 µM
[10]
  TGI: > 10 µM
[11]
  TGI: 5.93 µM
[12]
  TGI: 5.94 µM
[13]
  TGI: > 10 µM
[14]
  TGI: > 10 µM
[15]
  TGI: 8.12 µM
[16]
  TGI: 4.92 µM
[17]
  TGI: > 10 µM
[18]
  TGI: > 10 µM
[19]
  TGI: > 10 µM
[20]
  TGI: > 10 µM
[21]
  TGI: > 10 µM
[22]
  TGI: 6.59 µM
[23]
  TGI: > 10 µM
[24]
  TGI: > 10 µM
[25]
  TGI: > 10 µM
[26]
  TGI: > 10 µM
[27]
  TGI: > 10 µM
[28]
  TGI: > 10 µM
[29]
  TGI: 4.51 µM
[30]
  TGI: 4.98 µM
[31]
  TGI: > 10 µM
[32]
  TGI: > 10 µM
[33]
  TGI: 5.14 µM
[34]
  TGI: > 10 µM
[35]
  TGI: > 10 µM
[36]
  TGI: > 10 µM
[37]
  TGI: 5.7 µM
[38]
  TGI: > 10 µM
[39]
  TGI: > 10 µM
[40]
  TGI: 7.81 µM
[41]
  TGI: > 10 µM
[42]
  TGI: > 10 µM
[43]
  TGI: 4.49 µM
[44]
  TGI: 7.39 µM
[45]
  TGI: > 10 µM
[46]
  TGI: > 10 µM
[47]
  TGI: > 10 µM
[48]
  TGI: > 10 µM
[49]
  TGI: > 10 µM
[50]
  TGI: 9.1 µM
[51]
  TGI: 8.83 µM
[52]
  TGI: > 10 µM
[53]
  TGI: > 10 µM
[54]
  TGI: > 10 µM
[55]
  TGI: 9.41 µM
